Measured values as given in patent publication US8252737B2, “Antimicrobial peptides and methods of use” (priority 2004, dated 2012).

Tests used:
[1] = system: gram-positive bacteria
Procedure, shortened: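 Microtiter dilution in LB no-salt or Mueller-Hinton medium, with BHI for Pseudomonas aeruginosa clinical isolates (final inoculum 1×10^6 CFU/ml). Plates were incubated 24 hours at 37° C. MIC was the lowest peptide concentration inhibiting growth.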

[2] = system: human erythrocytes; test: Hemolytic activity (MHC), Protocol A, 12 hours; details: for minimal hemolytic concentration (MHC): incubation for 12 hours at 37° C. (Tables 7 and 8); for MHC: minimal hemolytic concentration on human red blood cells (hRBC), Table 9
Procedure, shortened: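 Twofold peptide dilutions incubated with 1% human erythrocytes in phosphate-buffered saline at 37 °C for 12 h; hemoglobin release read spectrophotometrically at 562 nm, or at 570 nm in a repeat. Hemolytic titer taken as the highest 2-fold dilution still releasing hemoglobin, versus peptide-free erythrocytes.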

[3] = Circular dichroism spectroscopy of helical structure (benign buffer and 50% TFE); format: physicochemical; details: 25° C.; for % helix 50% TFE / % helix Benign: relative to NAL in 50% TFE; for [θ]222 50% TFE: benign buffer diluted 1:1 (v/v) with TFE; for % helix Benign: benign buffer
Procedure, shortened: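 Peptide CD spectra at 25 °C, 190–250 nm, in benign buffer (50 mM KH2PO4/K2HPO4, 100 mM KCl, pH 7) and in the same buffer with 50% TFE. Samples were a 10-fold dilution of ~500 μM stock. Mean residue molar ellipticity at 222 nm gave relative α-helicity.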

Substance | MIC (μg/ml) Gram-positive [1] [µg/mL] | minimal hemolytic concentration (MHC) [2] [µg/mL] | MHC [2] [µg/mL] | % helix 50% TFE [3] [%] | [θ]222 50% TFE [3] | % helix Benign [3] [%] | [θ]222 Benign ([3]; benign buffer (100 mM KCl, 50 mM PO4 pH 7.0))
Ac-KWKSFLKTFKSAGKTVLHTALKAISS-NH2 [NG] | 7.4 | 125 | 125.0 | 84 | −24,350 deg · cm^2 · dmol^−1 | 8 | 
Ac-KWKSFLKTFKSASKTVLHTALKAISS-NH2 [NSL] | 7.4 | 125 | 125.0 | 95 | −27,550 deg · cm^2 · dmol^−1 | 4 | −1,300 deg · cm^2 · dmol^−1
